Test results reported in the supplement of paper PMC10307832.

What was measured:
Assay in all cases: relative viability (nuclei count vs DMSO), 5 days (fraction); higher = more cells survive
Imatinib + OSI-027 = compound: Cc1ccc(NC(=O)c2ccc(CN3CCN(C)CC3)cc2)cc1Nc1nccc(-c2cccnc2)n1 [Imatinib] + COc1cccc2cc(-c3nc([C@H]4CC[C@H](C(=O)O)CC4)n4ncnc(N)c34)[nH]c12 [OSI-027] (partner 0.5 µM)
Procedure, shortened: (§1)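 Cells from lung cancer lines were seeded into 1536-well plates and, one day later, dosed by pin tool. Treatments were either a single drug or a fixed dose of an anchor drug with five library-drug doses (not always all listed) in √10 steps. After 5 days, nuclei were stained in a one-step fixation (final 0.05% Triton X-100, 1% formaldehyde, 1 ug/ml Hoechst) and counted on 4× images, and relative viability is the treated-to-vehicle nuclei ratio, as the median of duplicate plates.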

Imatinib + Lapatinib = compound: Cc1ccc(NC(=O)c2ccc(CN3CCN(C)CC3)cc2)cc1Nc1nccc(-c2cccnc2)n1 [Imatinib] + CS(=O)(=O)CCNCc1ccc(-c2ccc3ncnc(Nc4ccc(OCc5cccc(F)c5)c(Cl)c4)c3c2)o1 [Lapatinib] (partner 2 µM)
Procedure, shortened: as §1

Imatinib + Pictilisib = compound: Cc1ccc(NC(=O)c2ccc(CN3CCN(C)CC3)cc2)cc1Nc1nccc(-c2cccnc2)n1 [Imatinib] + CS(=O)(=O)N1CCN(Cc2cc3nc(-c4cccc5[nH]ncc45)nc(N4CCOCC4)c3s2)CC1 [Pictilisib] (partner 1 µM)
Procedure, shortened: as §1

Imatinib + Linsitinib = compound: Cc1ccc(NC(=O)c2ccc(CN3CCN(C)CC3)cc2)cc1Nc1nccc(-c2cccnc2)n1 [Imatinib] + C[C@]1(O)C[C@@H](c2nc(-c3ccc4ccc(-c5ccccc5)nc4c3)c3c(N)nccn32)C1 [Linsitinib] (partner 1 µM)
Procedure, shortened: as §1

| Cell Line | relative viability (Imatinib + OSI-027; first compound 0.02 µM) | relative viability (Imatinib + OSI-027; first compound 0.06325 µM) | relative viability (Imatinib + OSI-027; first compound 0.2 µM) | relative viability (Imatinib + OSI-027; first compound 0.6325 µM) | relative viability (Imatinib + OSI-027; first compound 2 µM) | relative viability (Imatinib + Lapatinib; first compound 0.02 µM) | relative viability (Imatinib + Lapatinib; first compound 0.06325 µM) | relative viability (Imatinib + Lapatinib; first compound 0.2 µM) | relative viability (Imatinib + Lapatinib; first compound 2 µM) | relative viability (Imatinib + Pictilisib; first compound 0.02 µM) | relative viability (Imatinib + Pictilisib; first compound 0.06325 µM) | relative viability (Imatinib + Pictilisib; first compound 0.2 µM) | relative viability (Imatinib + Pictilisib; first compound 0.6325 µM) | relative viability (Imatinib + Pictilisib; first compound 2 µM) | relative viability (Imatinib + Linsitinib; first compound 0.02 µM) | relative viability (Imatinib + Linsitinib; first compound 0.06325 µM) | relative viability (Imatinib + Linsitinib; first compound 0.2 µM) | relative viability (Imatinib + Linsitinib; first compound 0.6325 µM) | relative viability (Imatinib + Linsitinib; first compound 2 µM) | relative viability (Imatinib + Lapatinib; first compound 0.6325 µM) |
| --- | --- | --- | --- | --- | --- | --- | --- | --- | --- | --- | --- | --- | --- | --- | --- | --- | --- | --- | --- | --- |
| NCI-H23 | 0.62 | 0.606 | 0.551 | 0.598 | 0.496 | 1.2 | 0.959 | 1.11 | 1.13 | 0.582 | 0.547 | 0.541 | 0.446 | 0.494 | 0.535 | 0.641 | 0.588 | 0.546 | 0.598 |  |
| LCLC-97TM1 | 0.562 |  | 0.577 | 0.542 | 0.444 |  |  | 0.958 | 0.734 |  |  | 0.18 | 0.225 | 0.164 |  |  | 0.204 | 0.179 | 0.184 | 0.878 |
| HCC-15 | 0.716 |  | 0.623 | 0.683 | 0.666 |  | 0.582 | 1 | 0.839 | 0.719 | 0.324 | 0.777 | 0.809 | 0.698 | 0.82 | 0.917 | 0.926 |  | 0.867 | 0.901 |
| PC-3 [JPC-3] | 0.792 |  | 0.854 | 0.877 | 0.711 | 0.503 |  | 0.48 | 0.431 | 0.715 |  |  | 0.774 | 0.653 |  |  | 1.05 | 1.04 |  | 0.462 |
| LU99A | 0.315 | 0.285 | 0.301 | 0.323 | 0.28 | 1.14 | 1.08 | 0.986 | 1.18 | 0.353 | 0.333 | 0.3 | 0.354 | 0.335 | 0.53 | 0.543 | 0.654 | 0.611 | 0.615 | 0.99 |
| NCI-H596 | 0.775 | 0.669 | 0.689 | 0.626 | 0.61 | 1.17 | 1.29 | 1.13 | 1.03 | 0.416 | 0.375 | 0.42 | 0.394 | 0.388 | 1.09 | 0.958 | 1.1 |  | 0.969 |  |
| HCC-827 |  | 0.732 | 0.937 | 0.705 | 0.824 | 0.206 | 0.162 | 0.211 | 0.191 | 0.817 | 0.942 | 1.1 | 0.926 | 0.952 | 1.02 | 0.96 |  | 0.98 | 0.897 | 0.179 |
| NCI-H2347 | 0.287 | 0.384 | 0.318 | 0.442 | 0.426 | 0.995 | 0.913 | 1.05 | 0.91 | 0.414 | 0.508 | 0.64 | 0.453 | 0.738 | 0.943 | 0.839 | 0.965 |  | 0.978 | 1.04 |
